Reference: patent US20250084079A1, “COMPOSITIONS AND METHODS FOR INHIBITION OF RAS” (TheRas, Inc., priority 2022, published 2025)
Read-outs that look alike come from different tables or passages of the source.

What was measured:
GDP KRAS G12D = GDP KRAS G12D (Homo sapiens, UniProt P01116, G12D); assay: SPR binding affinity to GDP KRAS G12D (Biacore S200); details: GDP-loaded KRAS G12D, steady state KD
Experimental: (§1) The affinity of compounds of the present disclosure to RAS ligands was assessed using surface plasmon resonance (SPR) binding analysis using a Biacore S200 (GE Healthcare Life Sciences) instrument. The SPR binding analysis employed the following reagents and protocols:
(§2) Buffer preparation: To make 0.5 L add required amounts of stocks for: 20 mM Hepes, 150 mM NaCl, 5 mM MgCl2, 1 mM TCEP, 0.05% P20, and 5 μM nucleotide. Adjust pH to 7.4, then bring volume up to 475 mL 1.05×Filter through 0.2 μm cellulose acetate membrane. Remove a volume of buffer as No DMSO Buffer 1.05× and set aside. Add appropriate volume of DMSO to buffer to a final concentration 5% DMSO.
(§3) Chip preparation: Prime 2× with 5% DMSO buffer. Allow system to flow on standby throughout the day.
(§4) Sample preparation: Make a 20× compound solution in 100% DMSO of highest compound concentration to be screened (2 mM for final 100 μM compound). Add appropriate volume of 1.05× buffer without DMSO to give 5% DMSO and mix by pipetting. Centrifuge sample 18,000×g 5 min 25° C. Make appropriate serial dilutions from the highest concentration into 5% DMSO running buffer for the concentrations needed. Prepare 5.8% DMSO and 4.5% DMSO solvent correction solutions using buffer without DMSO. Make two more solvent corrections by mixing 200 μL 4.5% 500 μL 5.8%, and 400 μL 4.5% 300 μL 5.8%
(§5) Capture Avi-taggedprotein: Thaw protein stock on ice, aliquot into single use size and freeze at −80° C. for future use. Dilute protein (avi-KRAS WT, avi-KRAS-G12D, avi-KRAS-G12V, or avi-RhoA) appropriately, to 20 μg/mL to begin in 5% DMSO buffer. Manually inject at 10 μL/min 12 second contact time. Adjust flow and or contact time to achieve desired level of captured protein. When desired level of protein is captured, flow for 10 minutes to stabilize signal.
(§6) General Binding Level Screen Method: Choose LMW screen template in Fragment/LMW subfolder in Binding screen folder. 30 μL/min high performance injection, 60 sec contact and dissociation time, carry over control, extra wash with 50% DMSO for each injection. Fifteen Startup cycles to condition. Control samples before and after compound samples. For GppNHp loaded KRAS, control is 20 μM Raf1 RBD domain. Adjust this sample to final 5% DMSO to match running buffer. This process is performed at a temperature of 25° C. using a single chip per experiment.
(§7) Binding affinity determination: Compounds selected from the binding level screen are evaluated in a dose response to determine the binding affinity (KD). Serial dilutions of compounds are prepared and injected over the sensor chip using a flow rate of 30 μL/min with a 60 second contact and dissociation time. After double referencing of the sensorgrams the total level of compound binding at each concentration is calculated. The steady state binding affinity is calculated with a Langmuir binding model assuming a 1:1 interaction with a constrained Rmax using the BIAevaluation software.

GppNHp KRAS G12D = GppNHp KRAS G12D (Homo sapiens, UniProt P01116, G12D); assay: SPR binding affinity to GppNHp KRAS G12D (Biacore S200); details: GppNHp-loaded KRAS G12D, steady state KD
Sequence of GppNHp KRAS G12D (P01116 1-188 isoform P01116-2 G12D): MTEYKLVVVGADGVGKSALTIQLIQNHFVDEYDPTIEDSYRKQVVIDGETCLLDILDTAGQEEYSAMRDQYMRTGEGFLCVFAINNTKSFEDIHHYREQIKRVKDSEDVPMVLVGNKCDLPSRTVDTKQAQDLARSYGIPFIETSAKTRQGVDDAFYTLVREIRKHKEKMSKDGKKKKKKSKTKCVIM
Experimental: as §1, §2, §3, §4, §5, §6, §7

[1] = target: T1, Avi-KRAS G12D (1-169) GppNHp/RAF1 RBD-3xFLAG (52-151) (Homo sapiens, UniProt P01116, G12D); assay: RAS-effector PPI HTRF disruption assay, Raf1-GppNHp-KRAS G12D; assay type: biochemical
T1 construct: 100 nM Avi-KRAS G12D (1-169) GppNHp
T1 sequence (P01116 1-169 isoform P01116-2 G12D): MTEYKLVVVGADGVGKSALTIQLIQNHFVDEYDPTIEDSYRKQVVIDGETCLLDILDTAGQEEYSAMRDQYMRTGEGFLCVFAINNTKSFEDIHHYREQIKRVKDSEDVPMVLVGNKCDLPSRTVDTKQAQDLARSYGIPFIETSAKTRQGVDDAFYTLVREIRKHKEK
In short: (§8)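 Compounds (10-point, 3× dilution from 100 μM) were incubated with GppNHp-loaded KRAS–effector complex for 1 h at room temperature with shaking, followed by detection reagents for another 1 h. Complex levels: 375 nM for G12D/Q25A–PI3KCA, 100 nM for G12D–RAF1, 50 nM for G12V and WT–RAF1.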

[2] = target: T2, Avi-KRAS G12D/Q25A (1-169) GppNHp/3xFLAG-PI3KCA (157-299) (Homo sapiens, UniProt P01116, G12D/Q25A); assay: RAS-effector PPI HTRF disruption assay, PI3KCA-GppNHp-KRAS G12D/Q25A; assay type: biochemical
T2 construct: 375 nM Avi-KRAS G12D/Q25A (1-169) GppNHp
T2 sequence (P01116 1-169 isoform P01116-2 G12D/Q25A): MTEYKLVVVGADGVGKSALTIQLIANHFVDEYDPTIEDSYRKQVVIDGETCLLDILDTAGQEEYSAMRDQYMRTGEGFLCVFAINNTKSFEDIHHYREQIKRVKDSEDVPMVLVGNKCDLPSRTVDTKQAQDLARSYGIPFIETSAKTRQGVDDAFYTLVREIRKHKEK
In short: as §8

[3] = target: T3, Avi-KRAS G12V (1-169) GppNHp/RAF1 RBD-3xFLAG (52-151) (Homo sapiens, UniProt P01116, G12V); assay: RAS-effector PPI HTRF disruption assay, Raf1-GppNHp-KRAS G12V; assay type: biochemical
T3 construct: 50 nM Avi-KRAS G12V (1-169) GppNHp
T3 sequence (P01116 1-169 isoform P01116-2 G12V): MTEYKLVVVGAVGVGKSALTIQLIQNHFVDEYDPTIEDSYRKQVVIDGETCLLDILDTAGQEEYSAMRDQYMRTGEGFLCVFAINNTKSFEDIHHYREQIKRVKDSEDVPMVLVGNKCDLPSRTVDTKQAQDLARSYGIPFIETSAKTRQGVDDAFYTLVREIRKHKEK
In short: as §8

[4] = target: T4, Avi-KRAS WT (1-169) GppNHp/RAF1 RBD-3xFLAG (52-151) (Homo sapiens, UniProt P01116); assay: RAS-effector PPI HTRF disruption assay, Raf1-GppNHp-KRAS WT; assay type: biochemical
T4 construct: 50 nM Avi-KRAS WT (1-169) GppNHp
T4 sequence (P01116 1-169 isoform P01116-2): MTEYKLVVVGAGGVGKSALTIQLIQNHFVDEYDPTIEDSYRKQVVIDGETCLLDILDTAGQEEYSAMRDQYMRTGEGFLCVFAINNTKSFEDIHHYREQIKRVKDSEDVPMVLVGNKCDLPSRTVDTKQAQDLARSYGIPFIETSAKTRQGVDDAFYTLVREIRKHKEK
In short: as §8

[5] = tested on: pERK in GP2d cells (KRAS G12D); assay: Cell-based pERK HTRF assay in GP2d cell; details: 60 min incubation
In short: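 Phospho-ERK was measured by HTRF in lysates of KRAS G12D GP2d cells after 60 min of compound exposure. Nine concentrations were tested, half-log apart from a 1 μM top, with 0.25% DMSO throughout. Cells had been plated the previous day in DMEM with 10% FBS, and the detection antibodies were incubated 4–24 h at room temperature before reading.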

Sequence of GDP KRAS G12D (P01116 1-188 isoform P01116-2 G12D): as the sequence (P01116 1-188 isoform P01116-2 G12D) above

| SMILES | Kd (GDP KRAS G12D) | Kd (GppNHp KRAS G12D) | IC50 [1] | IC50 [2] | IC50 [3] | IC50 [4] | IC50 ([5]; GP2d, 1 h) | IC50 ([5]; read-out: pERK-Gp2D-1 hr) |
| --- | --- | --- | --- | --- | --- | --- | --- | --- |
| Nc1nc2c(-c3c(C(F)(F)F)cc4c(O[C@H]5CNC[C@@H]5F)nc(OC[C@@]56CCCN5C[C@H](F)C6)nc4c3F)ccc(F)c2s1 (atropisomer, axis not shown) [Compound 18] | 0.1 to 1 µM | > 10 µM | > 10 µM | > 10 µM | > 10 µM | > 10 µM | – | – |
| C[C@H]1C[C@@H](Oc2nc(OC[C@@]34CCCN3C[C@H](F)C4)nc3c(F)c(-c4ccc(F)c5sc(N)nc45)c(C(F)(F)F)cc23)CN1 [Compound 7] | – | 1 to 10 µM | 0.1 to 1 µM | 1 to 10 µM | > 10 µM | 1 to 10 µM | ≤ 0.1 µM | – |
| C[C@H]1C[C@H](Oc2nc(OC[C@@]34CCCN3C[C@H](F)C4)nc3c(F)c(-c4ccc(F)c5sc(N)c(C#N)c45)c(Cl)cc23)CN1 [Compound 55] | – | – | 1 to 10 µM | 1 to 10 µM | > 10 µM | 1 to 10 µM | – | > 1 µM |
| C[C@@H]1C[C@@H](Oc2nc(OC[C@@]34CCCN3C[C@H](F)C4)nc3c(F)c(-c4ccc(F)c5sc(N)c(C#N)c45)ccc23)CN1 [Compound 56] | – | – | 1 to 10 µM | 0.1 to 1 µM | > 10 µM | 1 to 10 µM | 0.1 to 1 µM | – |
| Nc1nc2c(-c3c(C(F)(F)F)cc4c(O[C@H]5CN[C@@H](CO)C5)nc(OCC56CCCN5C[C@H](F)C6)nc4c3F)ccc(F)c2s1 (stereo partly drawn) [Compound 58] | – | – | 1 to 10 µM | 0.1 to 1 µM | > 10 µM | 1 to 10 µM | 0.1 to 1 µM | – |
| C[C@H]1NCC[C@@H]1Oc1nc(OC[C@@]23CCCN2C[C@H](F)C3)nc2c(F)c(-c3ccc(F)c4sc(N)c(C#N)c34)c(Cl)cc12 [Compound 59] | – | – | 0.1 to 1 µM | 0.1 to 1 µM | 0.1 to 1 µM | 0.1 to 1 µM | ≤ 0.1 µM | – |
| N#Cc1c(N)sc2c(F)ccc(-c3c(C(F)(F)F)cc4c(O[C@@H]5CCN[C@@H]5CF)nc(OC[C@@]56CCCN5C[C@H](F)C6)nc4c3F)c12 [Compound 62] | – | – | 0.1 to 1 µM | 1 to 10 µM | 1 to 10 µM | 0.1 to 1 µM | ≤ 0.1 µM | – |
| N#Cc1c(N)sc2c(F)ccc(-c3c(Cl)cc4c(O[C@@H]5CNC[C@@H]5F)nc(OC[C@@]56CCCN5C[C@H](F)C6)nc4c3F)c12 [Compound 63] | – | – | 0.1 to 1 µM | 1 to 10 µM | 1 to 10 µM | 1 to 10 µM | 0.1 to 1 µM | – |
| C[C@@H]1NCC[C@@H]1Oc1nc(OC[C@@]23CCCN2C[C@H](F)C3)nc2c(F)c(-c3ccc(F)c4sc(N)c(C#N)c34)c(Cl)cc12 [Compound 65] | – | – | 0.1 to 1 µM | 0.1 to 1 µM | 0.1 to 1 µM | 0.1 to 1 µM | ≤ 0.1 µM | – |
| N#Cc1c(N)sc2c(F)ccc(-c3ccc4c(O[C@H]5CNC[C@H]5F)nc(OC[C@@]56CCCN5C[C@H](F)C6)nc4c3F)c12 [Compound 66] | – | – | 1 to 10 µM | 1 to 10 µM | > 10 µM | 1 to 10 µM | 0.1 to 1 µM | – |
| N#Cc1c(N)sc2c(F)ccc(-c3c(C(F)(F)F)cc4c(O[C@@H]5CCNC5)nc(N5CC(N6CC7(CC7)C6)C5)nc4c3F)c12 [Compound 67] | – | – | 0.1 to 1 µM | > 10 µM | 1 to 10 µM | 0.1 to 1 µM | 0.1 to 1 µM | – |
| N#Cc1c(N)sc2c(F)ccc(-c3c(Cl)cc4c(O[C@@H]5CN[C@H](CO)C5)nc(OC[C@@]56CCCN5C[C@H](F)C6)nc4c3F)c12 [Compound 70] | – | – | ≤ 0.1 µM | 0.1 to 1 µM | 0.1 to 1 µM | 0.1 to 1 µM | 0.1 to 1 µM | – |
| N#Cc1c(N)sc2c(F)ccc(-c3ccc4c(O[C@H]5CNC[C@@H]5F)nc(OC[C@@]56CCCN5C[C@H](F)C6)nc4c3F)c12 [Compound 71] | – | – | 1 to 10 µM | 1 to 10 µM | > 10 µM | 1 to 10 µM | > 1 µM | – |
| C[C@H]1NCC[C@@H]1Oc1nc(OC[C@@]23CCCN2C[C@H](Cl)C3)nc2c(F)c(-c3ccc(F)c4sc(N)c(C#N)c34)c(C(F)(F)F)cc12 [Compound 72] | – | – | ≤ 0.1 µM | 0.1 to 1 µM | 0.1 to 1 µM | ≤ 0.1 µM | ≤ 0.1 µM | – |
| N#Cc1c(N)sc2c(F)ccc(-c3c(F)cc4c(O[C@@H]5CCNC5)nc(OC[C@@]56CCCN5C[C@H](F)C6)nc4c3F)c12 [Compound 77] | – | – | > 10 µM | > 10 µM | > 10 µM | > 10 µM | > 1 µM | – |
| N#Cc1c(N)sc2c(F)ccc(-c3ncc4c(O[C@@H]5CCNC5)nc(OC[C@@]56CCCN5C[C@H](F)C6)nc4c3F)c12 [Compound 97] | – | – | 1 to 10 µM | > 10 µM | > 10 µM | 1 to 10 µM | 0.1 to 1 µM | – |
| C[C@H]1NCC[C@H]1Oc1nc(OC[C@@]23CCCN2C[C@H](F)C3)nc2c(F)c(-c3ccc(F)c4sc(N)c(C#N)c34)ncc12 [Compound 98, 2-amino-7-fluoro-4-(8-fluoro-2-(((2R,7aS)-2-fluorotetrahydro-1H-pyrrolizin-7a(5H)-yl)methoxy)-4-(((2R,3R)-2-methylpyrrolidin-3-yl)oxy)pyrido[4,3-d]pyrimidin-7-yl)benzo[b]thiophene-3-carbonitrile] | – | – | 1 to 10 µM | > 10 µM | 1 to 10 µM | 1 to 10 µM | 0.1 to 1 µM | – |
